This passage reports IC50 and inhibition of growth results from ChEMBL document CHEMBL5113500, “New brefeldin A-cinnamic acid ester derivatives as potential antitumor agents: Design, synthesis and biological evaluation” (Eur J Med Chem, 2022).

What is called IC50 is the concentration that inhibits the measured activity by half. A low value points to greater potency.

Molecules are shown by their SMILES.

The test system of the first assay is ECa-109 cell line. The assay can be described thus: Antiproliferative activity against human Eca-109 cells measured after 72 hrs by MTT assay. It counts as functional, cell-based. Particulars: ECa-109, 72 h. On the technique in general: Formazan colour is commonly taken as a measure of viable cells.
The compound `C[C@H]1CCC/C=C/[C@@H]2C[C@H](OC(=O)/C=C/c3ccccc3F)C[C@H]2[C@H](O)/C=C/C(=O)O1` showed a half-inhibitory concentration (IC50) of 2.42 µM.

In the case of `Cc1cccc(/C=C/C(=O)O[C@@H]2/C=C/C(=O)O[C@@H](C)CCC/C=C/[C@@H]3C[C@H](O)C[C@H]32)c1`, half-maximal inhibition (IC50) was put at 1.09 µM.

Another assay concerns Bel-7402. The assay can be described thus: Antiproliferative activity against human Bel-7402 cells measured after 72 hrs by MTT assay. The following applies: Bel-7402, 72 h. It counts as functional, cell-based.
Compound `C[C@H]1CCC/C=C/[C@@H]2C[C@H](OC(=O)/C=C/c3ccccc3F)C[C@H]2[C@H](O)/C=C/C(=O)O1` showed an IC50 of 0.82 µM.

`Cc1cccc(/C=C/C(=O)O[C@@H]2/C=C/C(=O)O[C@@H](C)CCC/C=C/[C@@H]3C[C@H](O)C[C@H]32)c1` displayed a concentration for half-maximal inhibition (IC50) of 0.75 µM.

The test system of another assay is PANC-1. The assay can be described thus: Antiproliferative activity against human PANC-1 cells measured after 72 hrs by MTT assay. It is filed as functional, cell-based. The following applies: PANC-1, 72 h.
`C[C@H]1CCC/C=C/[C@@H]2C[C@H](OC(=O)/C=C/c3ccccc3F)C[C@H]2[C@H](O)/C=C/C(=O)O1`: the IC50 stood at 0.86 µM.

The compound `Cc1cccc(/C=C/C(=O)O[C@@H]2/C=C/C(=O)O[C@@H](C)CCC/C=C/[C@@H]3C[C@H](O)C[C@H]32)c1` showed an IC50 of 0.37 µM.

The next assay relates to HeLa. The assay can be described thus: Antiproliferative activity against human HeLa cells measured after 72 hrs by MTT assay. It is filed as functional, cell-based.
Settings: not given
In the case of `C[C@H]1CCC/C=C/[C@@H]2C[C@H](OC(=O)/C=C/c3ccccc3F)C[C@H]2[C@H](O)/C=C/C(=O)O1`, half-maximal inhibition (IC50) was put at 2.79 µM.

Regarding `Cc1cccc(/C=C/C(=O)O[C@@H]2/C=C/C(=O)O[C@@H](C)CCC/C=C/[C@@H]3C[C@H](O)C[C@H]32)c1`, the IC50 worked out at 0.87 µM.

In the next assay the test system is HepG2. The assay can be described thus: Antiproliferative activity against human HepG2 cells measured after 72 hrs by MTT assay. It is filed as functional, cell-based. The following applies: HepG2, 72 h.
In the case of `C[C@H]1CCC/C=C/[C@@H]2C[C@H](OC(=O)/C=C/c3ccccc3F)C[C@H]2[C@H](O)/C=C/C(=O)O1`, the half-maximal inhibitory concentration (IC50) was determined as 0.48 µM.

`Cc1cccc(/C=C/C(=O)O[C@@H]2/C=C/C(=O)O[C@@H](C)CCC/C=C/[C@@H]3C[C@H](O)C[C@H]32)c1` had an IC50 of 0.56 µM.

In the next assay the test system is HepG2. In words: Antiproliferative activity against human HepG2 cells assessed as cell growth inhibition at 1 uM measured after 72 hrs by MTT assay relative to control. The following applies: read-out: GI. It counts as functional.
In the case of `Cc1ccc(/C=C/C(=O)O[C@@H]2C[C@@H]3[C@H](/C=C/CCC[C@H](C)OC(=O)/C=C/[C@H]3OC(=O)/C=C/c3ccc(C)cc3)C2)cc1`, the inhibition of growth at 1 µM amounted to 5.2%.

For `C[C@H]1CCC/C=C/[C@@H]2C[C@H](OC(=O)/C=C/c3ccc(F)cc3)C[C@H]2[C@H](OC(=O)/C=C/c2ccc(F)cc2)/C=C/C(=O)O1`, the inhibition of growth at 1 µM turned out to be 8.1%.

Regarding `C[C@H]1CCC/C=C/[C@@H]2C[C@H](OC(=O)/C=C/c3ccc(N(C)C)cc3)C[C@H]2[C@H](O)/C=C/C(=O)O1`, the inhibition of growth at 1 µM came to 47%.

For `COc1cc(/C=C/C(=O)O[C@@H]2C[C@H]3[C@H](O)/C=C/C(=O)O[C@@H](C)CCC/C=C/[C@@H]3C2)cc(OC)c1OC`, the inhibition of growth at 1 µM came out at 4.2%.

For the compound `Cc1ccccc1/C=C/C(=O)O[C@@H]1C[C@@H]2[C@H](/C=C/CCC[C@H](C)OC(=O)/C=C/[C@H]2OC(=O)/C=C/c2ccccc2C)C1`, the inhibition of growth at 1 µM stood at 1.7%.

Turning to `Cc1cccc(/C=C/C(=O)O[C@@H]2C[C@@H]3[C@H](/C=C/CCC[C@H](C)OC(=O)/C=C/[C@H]3OC(=O)/C=C/c3cccc(C)c3)C2)c1`, the inhibition of growth at 1 µM stood at 6%.

As for `C[C@H]1CCC/C=C/[C@@H]2C[C@H](OC(=O)/C=C/c3cccc(F)c3)C[C@H]2[C@H](OC(=O)/C=C/c2cccc(F)c2)/C=C/C(=O)O1`, the inhibition of growth at 1 µM is 6.3%.

With `C[C@H]1CCC/C=C/[C@@H]2C[C@H](OC(=O)/C=C/c3ccccc3F)C[C@H]2[C@H](OC(=O)/C=C/c2ccccc2F)/C=C/C(=O)O1`, the inhibition of growth at 1 µM was found to be 8.4%.

With `C[C@H]1CCC/C=C/[C@@H]2C[C@H](OC(=O)/C=C/c3ccccc3)C[C@H]2[C@H](OC(=O)/C=C/c2ccccc2)/C=C/C(=O)O1`, the inhibition of growth at 1 µM amounted to 20.4%.

For `C[C@H]1CCC/C=C/[C@@H]2C[C@H](OC(=O)/C=C/c3cccc(Cl)c3)C[C@H]2[C@H](OC(=O)/C=C/c2cccc(Cl)c2)/C=C/C(=O)O1`, the inhibition of growth at 1 µM was 6.4%.

As to `COc1cc(/C=C/C(=O)O[C@@H]2C[C@@H]3[C@H](/C=C/CCC[C@H](C)OC(=O)/C=C/[C@H]3OC(=O)/C=C/c3ccc(OCc4ccccc4)c(OC)c3)C2)ccc1OCc1ccccc1`, the inhibition of growth at 1 µM is 2.7%.

`C[C@H]1CCC/C=C/[C@@H]2C[C@H](OC(=O)/C=C/c3ccccc3F)C[C@H]2[C@H](O)/C=C/C(=O)O1`: the inhibition of growth at 1 µM amounted to 71.1%.

For the compound `C[C@H]1CCC/C=C/[C@@H]2C[C@H](OC(=O)/C=C/c3ccc4c(c3)OCO4)C[C@H]2[C@H](O)/C=C/C(=O)O1`, the inhibition of growth at 1 µM is 3.7%.

For the compound `Cc1cccc(/C=C/C(=O)O[C@@H]2/C=C/C(=O)O[C@@H](C)CCC/C=C/[C@@H]3C[C@H](O)C[C@H]32)c1`, the inhibition of growth at 1 µM was found to be 77.8%.

`C[C@H]1CCC/C=C/[C@@H]2C[C@H](OC(=O)/C=C/c3ccc(C(F)(F)F)cc3)C[C@H]2[C@H](OC(=O)/C=C/c2ccc(C(F)(F)F)cc2)/C=C/C(=O)O1`: the inhibition of growth at 1 µM turned out to be 4.3%.

Regarding `C[C@H]1CCC/C=C/[C@@H]2C[C@H](OC(=O)/C=C/c3ccccc3Br)C[C@H]2[C@H](OC(=O)/C=C/c2ccccc2Br)/C=C/C(=O)O1`, the inhibition of growth at 1 µM came to 3.1%.

Take `C[C@H]1CCC/C=C/[C@@H]2C[C@H](OC(=O)/C=C/c3ccc4c(c3)OCO4)C[C@H]2[C@H](OC(=O)/C=C/c2ccc3c(c2)OCO3)/C=C/C(=O)O1`: the inhibition of growth at 1 µM came to 4.3%.
